The target of one experiment is human orexin-1 receptor (Homo sapiens (Human), UniProt O43613). Nature of the experiment: Intracellular calcium measurements (FLIPR), antagonism of orexin-A response. The experiment is classed as cell-based. The note with it: CHO cells expressing human orexin-1 receptor, 3 nM orexin-A, geometric mean if determined several times, read-out: IC50 OX1. The method, then: (§1) Antagonistic activities on both orexin receptors have been measured for each example compound using the following procedure:
(§2) In Vitro Assay: Intracellular Calcium Measurements:
(§3) Chinese hamster ovary (CHO) cells expressing the human orexin-1 receptor and the human orexin-2 receptor, respectively, are grown in culture medium (Ham F-12 with L-Glutamine) containing 300 μg/mL G418, 100 U/mL penicillin, 100 μg/mL streptomycin and 10% heat inactivated fetal calf serum (FCS). The cells are seeded at 20,000 cells/well into 384-well black clear bottom sterile plates (Greiner). The seeded plates are incubated overnight at 37° C. in 5% CO2. Human orexin-A as an agonist is prepared as 1 mM stock solution in MeOH:water (1:1), diluted in HBSS containing 0.1% bovine serum albumin (BSA), NaHCO3: 0.375 g/L and 20 mM HEPES for use in the assay at a final concentration of 3 nM.
(§4) Antagonists are prepared as 10 mM stock solution in DMSO, then diluted in 384-well plates using DMSO followed by a transfer of the dilutions into in HBSS containing 0.1% bovine serum albumin (BSA), NaHCO3: 0.375 g/L and 20 mM HEPES. On the day of the assay, 50 μL of staining buffer (HBSS containing 1% FCS, 20 mM HEPES, NaHCO3: 0.375 g/L, 5 mM probenecid (Sigma) and 3 μM of the fluorescent calcium indicator fluo-4 AM (1 mM stock solution in DMSO, containing 10% pluronic) is added to each well. The 384-well cell-plates are incubated for 50 min at 37° C. in 5% CO2 followed by equilibration at rt for 30 min before measurement.
(§5) Within the Fluorescent Imaging Plate Reader (FLIPR Tetra, Molecular Devices), antagonists are added to the plate in a volume of 10 μL/well, incubated for 120 min and finally 10 μL/well of agonist is added. Fluorescence is measured for each well at 1 second intervals, and the height of each fluorescence peak is compared to the height of the fluorescence peak induced by 3 nM orexin-A with vehicle in place of antagonist. The IC50 value (the concentration of compound needed to inhibit 50% of the agonistic response) is determined and may be normalized using the obtained IC50 value of an on-plate reference compound. Optimized conditions were achieved by adjustment of pipetting speed and cell splitting regime. The calculated IC50 values may fluctuate depending on the daily cellular assay performance. Fluctuations of this kind are known to those skilled in the art. In the case where IC50 values have been determined several times for the same compound, the geometric mean has been given.
A general note: A change in cytosolic calcium serves as a functional read-out for many receptors and channels.

The target in a further experiment is human orexin-2 receptor (Homo sapiens (Human), UniProt O43614). The description is as above. It counts as cell-based. Particulars: CHO cells expressing human orexin-2 receptor, 3 nM orexin-A, geometric mean if determined several times, read-out: IC50 OX2. Here is the method:
as §1, §2, §3, §4, §5

Chain of human orexin-1 receptor (O43613 whole entry): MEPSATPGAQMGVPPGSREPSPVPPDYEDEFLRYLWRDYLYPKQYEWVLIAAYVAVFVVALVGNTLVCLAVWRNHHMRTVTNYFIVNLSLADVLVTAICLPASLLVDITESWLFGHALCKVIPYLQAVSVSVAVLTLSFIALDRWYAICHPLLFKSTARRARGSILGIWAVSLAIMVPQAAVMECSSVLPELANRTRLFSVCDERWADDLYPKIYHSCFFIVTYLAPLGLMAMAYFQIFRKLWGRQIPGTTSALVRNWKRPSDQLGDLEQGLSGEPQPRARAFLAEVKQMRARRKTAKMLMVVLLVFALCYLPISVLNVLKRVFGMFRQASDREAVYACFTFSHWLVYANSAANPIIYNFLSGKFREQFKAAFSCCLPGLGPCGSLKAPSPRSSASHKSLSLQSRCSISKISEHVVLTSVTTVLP
Chain of human orexin-2 receptor (O43614 whole entry): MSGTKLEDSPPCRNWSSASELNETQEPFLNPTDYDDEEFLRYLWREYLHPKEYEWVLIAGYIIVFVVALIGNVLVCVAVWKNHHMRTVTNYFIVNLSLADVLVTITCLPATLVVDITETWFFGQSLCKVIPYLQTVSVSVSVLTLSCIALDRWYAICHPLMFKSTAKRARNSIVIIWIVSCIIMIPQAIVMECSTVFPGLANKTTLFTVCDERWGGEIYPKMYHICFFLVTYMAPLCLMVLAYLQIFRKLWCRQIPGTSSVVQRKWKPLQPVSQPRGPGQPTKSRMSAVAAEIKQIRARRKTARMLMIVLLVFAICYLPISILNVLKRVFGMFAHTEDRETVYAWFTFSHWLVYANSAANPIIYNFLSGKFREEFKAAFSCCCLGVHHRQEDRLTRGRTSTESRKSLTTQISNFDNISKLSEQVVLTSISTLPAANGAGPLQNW

In general, IC50 refers to the concentration that gives 50% inhibition. In the case of `Cc1c(Cl)cccc1-c1noc([C@@H]2CCN2C(=O)c2ncsc2-c2ccccc2)n1` [Example 60, {(S)-2-[3-(3-Chloro-2-methyl-phenyl)-[1,2,4]oxadiazol-5-yl]-azetidin-1-yl}-(5-phenyl-thiazol-4-yl)-methanone], the IC50 on human orexin-1 receptor is 1200 nM; at human orexin-2 receptor, 500 nM.

Regarding `O=C(c1cc(C(F)(F)F)ccc1-n1nccn1)N1CC[C@H]1c1nc(-c2ccccc2OC(F)(F)F)no1` [Example 48, (2-[1,2,3]Triazol-2-yl-5-trifluoromethyl-phenyl)-{(S)-2-[3-(2-trifluoromethoxy-phenyl)-[1,2,4]oxadiazol-5-yl]-azetidin-1-yl}-methanone], the figures for the 50% inhibitory concentration (IC50) on human orexin-1 receptor and at human orexin-2 receptor were 960 nM and 239 nM, respectively.

For `O=C(c1cc(Cl)ccc1-n1nccn1)N1CC[C@H]1c1nc(-c2ccccc2OC(F)(F)F)no1` [Example 81, (5-Chloro-2-[1,2,3]triazol-2-yl-phenyl)-{(S)-2-[3-(2-trifluoromethoxy-phenyl)-[1,2,4]oxadiazol-5-yl]-azetidin-1-yl}-methanone], the figures for the concentration for half-maximal inhibition (IC50) on human orexin-1 receptor and on human orexin-2 receptor were 338 nM and 47 nM, respectively.

As to `Cc1cc(C(=O)N2CC[C@H]2c2nc(-c3ccccc3OC(F)(F)F)no2)c(-n2nccn2)cc1C` [Example 18, (4,5-Dimethyl-2-[1,2,3]triazol-2-yl-phenyl)-{(S)-2-[3-(2-trifluoromethoxy-phenyl)-[1,2,4]oxadiazol-5-yl]-azetidin-1-yl}-methanone], the concentration for half-maximal inhibition (IC50) on human orexin-1 receptor came out at 160 nM; at human orexin-2 receptor, 5 nM.

With `COc1cc(C(=O)N2CC[C@H]2c2noc(-c3cccc(Cl)c3OC)n2)c(-n2nccn2)cc1Cl` [Example 112, {(S)-2-[5-(3-Chloro-2-methoxy-phenyl)-[1,2,4]oxadiazol-3-yl]-azetidin-1-yl}-(4-chloro-5-methoxy-2-[1,2,3]triazol-2-yl-phenyl)-methanone], the IC50 was found to be 70 nM at human orexin-1 receptor and 1 nM on human orexin-2 receptor.

Regarding `CCOc1ncccc1-c1nc([C@@H]2CCN2C(=O)c2cc(C)ccc2-n2nccn2)no1` [Example 90, {(S)-2-[5-(2-Ethoxy-pyridin-3-yl)-[1,2,4]oxadiazol-3-yl]-azetidin-1-yl}-(5-methyl-2-[1,2,3]triazol-2-yl-phenyl)-methanone], the values for the IC50 on human orexin-1 receptor and at human orexin-2 receptor were 52 nM and 2 nM, respectively.

Regarding `CCOc1ncccc1-c1nc([C@@H]2CCN2C(=O)c2cc(OC)c(Cl)cc2-n2nccn2)no1` [Example 98, (4-Chloro-5-methoxy-2-[1,2,3]triazol-2-yl-phenyl)-{(S)-2-[5-(2-ethoxy-pyridin-3-yl)-[1,2,4]oxadiazol-3-yl]-azetidin-1-yl}-methanone], the IC50 on human orexin-1 receptor amounted to 83 nM; at human orexin-2 receptor it was 1 nM.

As to `COc1cc(C(=O)N2CC[C@H]2c2noc(-c3cccc(Cl)c3C)n2)c(-n2nccn2)cc1C` [Example 103, {(S)-2-[5-(3-Chloro-2-methyl-phenyl)-[1,2,4]oxadiazol-3-yl]-azetidin-1-yl}-(5-methoxy-4-methyl-2-[1,2,3]triazol-2-yl-phenyl)-methanone], the figures for the IC50 on human orexin-1 receptor and on human orexin-2 receptor were 59 nM and 2 nM, respectively.

Turning to `Cc1c(Cl)cccc1-c1nc([C@@H]2CCN2C(=O)c2ccccc2-n2nccn2)no1` [Example 100, {(S)-2-[5-(3-Chloro-2-methyl-phenyl)-[1,2,4]oxadiazol-3-yl]-azetidin-1-yl}-(2-[1,2,3]triazol-2-yl-phenyl)-methanone], the figures for the IC50 on human orexin-1 receptor and at human orexin-2 receptor were 820 nM and 34 nM, respectively.

`Cc1c(Cl)cccc1-c1nc([C@@H]2CCN2C(=O)c2ccc(Cl)cc2-n2nccn2)no1` [Example 107, {(S)-2-[5-(3-Chloro-2-methyl-phenyl)-[1,2,4]oxadiazol-3-yl]-azetidin-1-yl}-(4-chloro-2-[1,2,3]triazol-2-yl-phenyl)-methanone]: the IC50 at human orexin-1 receptor is 317 nM; at human orexin-2 receptor, 13 nM.

As to `COc1cccc(-c2noc([C@@H]3CCN3C(=O)c3cc(C)ccc3-n3nccn3)n2)c1` [Example 5, {(S)-2-[3-(3-Methoxy-phenyl)-[1,2,4]oxadiazol-5-yl]-azetidin-1-yl}-(5-methyl-2-[1,2,3]triazol-2-yl-phenyl)-methanone], the IC50 at human orexin-1 receptor was determined as 1190 nM; on human orexin-2 receptor, 25 nM.

As to `COc1c(Cl)cccc1-c1nc([C@@H]2CCN2C(=O)c2cc(Cl)c(C)cc2-n2nccn2)no1` [Example 113, {(S)-2-[5-(3-Chloro-2-methoxy-phenyl)-[1,2,4]oxadiazol-3-yl]-azetidin-1-yl}-(5-chloro-4-methyl-2-[1,2,3]triazol-2-yl-phenyl)-methanone], the IC50 at human orexin-1 receptor stood at 51 nM; at human orexin-2 receptor, 1 nM.

As to `COc1cc(C(=O)N2CC[C@H]2c2noc(-c3cccc(F)c3OC)n2)c(-n2nccn2)cc1C` [Example 88, {(S)-2-[5-(3-Fluoro-2-methoxy-phenyl)-[1,2,4]oxadiazol-3-yl]-azetidin-1-yl}-(5-methoxy-4-methyl-2-[1,2,3]triazol-2-yl-phenyl)-methanone], the IC50 at human orexin-1 receptor turned out to be 178 nM; at human orexin-2 receptor, 0.6 nM.

In the case of `Cc1ccc(-c2ccccc2)c(C(=O)N2CC[C@H]2c2nnc(-c3ccccc3OC(F)(F)F)[nH]2)c1` [Example 134, (4-Methyl-biphenyl-2-yl)-{(S)-2-[5-(2-trifluoromethoxy-phenyl)-4H-[1,2,4]triazol-3-yl]-azetidin-1-yl}-methanone], the 50% inhibitory concentration (IC50) at human orexin-1 receptor turned out to be 563 nM; at human orexin-2 receptor it was 39 nM.

Regarding `Cc1ccc(-n2nccn2)c(C(=O)N2CC[C@H]2c2nc(-c3ccc(F)c(F)c3)no2)c1` [Example 12, {(S)-2-[3-(3,4-Difluoro-phenyl)-[1,2,4]oxadiazol-5-yl]-azetidin-1-yl}-(5-methyl-2-[1,2,3]triazol-2-yl-phenyl)-methanone], the half-inhibitory concentration (IC50) on human orexin-1 receptor amounted to 2490 nM; on human orexin-2 receptor, 187 nM.

With `Cc1ccc(C(=O)N2CC[C@H]2c2noc(-c3cccc(Cl)c3C)n2)c(-n2nccn2)c1` [Example 106, {(S)-2-[5-(3-Chloro-2-methyl-phenyl)-[1,2,4]oxadiazol-3-yl]-azetidin-1-yl}-(4-methyl-2-[1,2,3]triazol-2-yl-phenyl)-methanone], the IC50 on human orexin-1 receptor is 330 nM; at human orexin-2 receptor it was 9 nM.

For `Cc1cccc(-n2nccn2)c1C(=O)N1CC[C@H]1c1nc(-c2ccccc2OC(F)(F)F)no1` [Example 46, (2-Methyl-6-[1,2,3]triazol-2-yl-phenyl)-{(S)-2-[3-(2-trifluoromethoxy-phenyl)-[1,2,4]oxadiazol-5-yl]-azetidin-1-yl}-methanone], the IC50 was found to be 1020 nM on human orexin-1 receptor and 115 nM at human orexin-2 receptor.

Consider `Cc1c(Cl)cccc1-c1noc([C@@H]2CCN2C(=O)c2ncsc2-c2cccc(Cl)c2)n1` [Example 61, {(S)-2-[3-(3-Chloro-2-methyl-phenyl)-[1,2,4]oxadiazol-5-yl]-azetidin-1-yl}-[5-(3-chloro-phenyl)-thiazol-4-yl]-methanone], for which the half-inhibitory concentration (IC50) at human orexin-1 receptor was found to be 993 nM; on human orexin-2 receptor, 367 nM.

For `Cc1c(Cl)cccc1-c1nc([C@@H]2CCN2C(=O)c2ccc(C(F)(F)F)cc2-n2nccn2)no1` [Example 108, {(S)-2-[5-(3-Chloro-2-methyl-phenyl)-[1,2,4]oxadiazol-3-yl]-azetidin-1-yl}-(2-[1,2,3]triazol-2-yl-4-trifluoromethyl-phenyl)-methanone], the IC50 at human orexin-1 receptor came out at 759 nM; at human orexin-2 receptor, 28 nM.

Consider `COc1c(Cl)cccc1-c1nnc([C@@H]2CCN2C(=O)c2cc(C)ccc2-n2nccn2)[nH]1` [Example 126, {(S)-2-[5-(3-Chloro-2-methoxy-phenyl)-4H-[1,2,4]triazol-3-yl]-azetidin-1-yl}-(5-methyl-2-[1,2,3]triazol-2-yl-phenyl)-methanone], for which the IC50 at human orexin-1 receptor turned out to be 7230 nM; at human orexin-2 receptor it was 170 nM.

`CCOc1ncccc1-c1noc([C@@H]2CCN2C(=O)c2cc(C)c(C)cc2-n2nccn2)n1` [Example 31, (4,5-Dimethyl-2-[1,2,3]triazol-2-yl-phenyl)-{(S)-2-[3-(2-ethoxy-pyridin-3-yl)-[1,2,4]oxadiazol-5-yl]-azetidin-1-yl}-methanone]: the figures for the IC50 on human orexin-1 receptor and at human orexin-2 receptor were 68 nM and 3 nM, respectively.

Turning to `Cc1cccc(-c2ocnc2C(=O)N2CC[C@H]2c2nc(-c3ccccc3OC(F)(F)F)no2)c1` [Example 49, (5-m-Tolyl-oxazol-4-yl)-{(S)-2-[3-(2-trifluoromethoxy-phenyl)-[1,2,4]oxadiazol-5-yl]-azetidin-1-yl}-methanone], the IC50 turned out to be 223 nM at human orexin-1 receptor and 305 nM on human orexin-2 receptor.

These data come from patent publication US9403813B2, “Azetidine amide derivatives as orexin receptor antagonists” (ACTELION PHARMACEUTICALS LTD, priority 2013, dated 2016).
